Experimental data from ChEMBL document CHEMBL2203185, “Development of sub-nanomolar dipeptidic ligands of neuropeptide FF receptors” (Bioorg Med Chem Lett, 2012).
Non-standard residues stand in square brackets, D forms with d. Residues, ends and D or L forms follow the SMILES beside them. Inp = O=C(O)C1CCNCC1

How the values were obtained:
Assay type in all cases: cell-based
[1] = biological target: T1, Neuropeptide FF receptor 1 (Homo sapiens, UniProt Q9GZQ6); test: Displacement of [3H]FFRF-NH2 from human flag-tagged NPFF1 receptor expressed in CHO cells by scintillation counting
[2] = biological target: T2, Neuropeptide FF receptor 2 (Homo sapiens, UniProt Q9Y5X5); test: Displacement of [3H]FFRF-NH2 from human flag-tagged NPFF2 receptor expressed in CHO cells by scintillation counting
[3] = biological target: T2, Neuropeptide FF receptor 2; test: Displacement of [3H]FFRF-NH2 from human flag-tagged NPFF2 receptor expressed in CHO cells at 500 nM by scintillation counting
[4] = biological target: T2, Neuropeptide FF receptor 2; test: Displacement of [3H]FFRF-NH2 from human flag-tagged NPFF2 receptor expressed in CHO cells at 5 uM by scintillation counting
[5] = biological target: T1, Neuropeptide FF receptor 1; test: Displacement of [3H]FFRF-NH2 from human flag-tagged NPFF1 receptor expressed in CHO cells at 5 uM by scintillation counting
[6] = biological target: T1, Neuropeptide FF receptor 1; test: Displacement of [3H]FFRF-NH2 from human flag-tagged NPFF1 receptor expressed in CHO cells at 500 nM by scintillation counting

T2 sequence (Q9Y5X5 whole entry): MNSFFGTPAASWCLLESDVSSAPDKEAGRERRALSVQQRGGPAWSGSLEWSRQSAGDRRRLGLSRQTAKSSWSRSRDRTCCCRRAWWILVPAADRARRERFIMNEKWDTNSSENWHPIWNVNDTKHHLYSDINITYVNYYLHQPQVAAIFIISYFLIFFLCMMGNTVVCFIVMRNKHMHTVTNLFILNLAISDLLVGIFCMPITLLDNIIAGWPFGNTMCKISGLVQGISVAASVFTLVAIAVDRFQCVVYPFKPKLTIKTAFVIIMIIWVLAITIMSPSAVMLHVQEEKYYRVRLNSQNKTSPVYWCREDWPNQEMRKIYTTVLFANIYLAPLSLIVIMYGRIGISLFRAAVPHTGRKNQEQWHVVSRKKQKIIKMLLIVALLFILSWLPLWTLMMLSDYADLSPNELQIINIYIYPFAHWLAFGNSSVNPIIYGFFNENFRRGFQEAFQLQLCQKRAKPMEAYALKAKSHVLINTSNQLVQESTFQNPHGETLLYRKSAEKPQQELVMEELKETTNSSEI
T1 sequence (Q9GZQ6 whole entry): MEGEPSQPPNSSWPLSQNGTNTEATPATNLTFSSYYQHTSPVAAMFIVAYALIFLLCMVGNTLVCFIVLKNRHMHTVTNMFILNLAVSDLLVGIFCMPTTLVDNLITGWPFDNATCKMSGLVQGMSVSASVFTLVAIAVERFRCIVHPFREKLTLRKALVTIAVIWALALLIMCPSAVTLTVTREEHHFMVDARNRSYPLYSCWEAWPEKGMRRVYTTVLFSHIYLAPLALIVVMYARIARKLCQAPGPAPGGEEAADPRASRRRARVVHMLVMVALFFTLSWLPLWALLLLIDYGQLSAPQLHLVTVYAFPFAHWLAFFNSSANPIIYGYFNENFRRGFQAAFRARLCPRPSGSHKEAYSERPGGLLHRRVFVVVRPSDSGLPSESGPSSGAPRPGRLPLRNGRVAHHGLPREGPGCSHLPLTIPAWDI

Compound | Ki [1] | Ki [2] | inhibition [3] | inhibition [4] | inhibition [5] | inhibition [6]
NC(=O)[C@@H](Cc1ccccc1)NC(=O)[C@@H](CCCN=C(N)N)NC(=O)c1ccccc1 | 198 nM | 2020 nM | – | – | – | –
NC(=O)[C@H](Cc1ccccc1)NC(=O)[C@H](CCCN=C(N)N)NC(=O)c1ccccc1-c1ccccc1 | 0.32 nM | 590 nM | – | – | – | –
NC(=O)[C@H](Cc1ccccc1)NC(=O)[C@H](CCCN=C(N)N)NC(=O)C12CC3CC(CC(C3)C1)C2 | 22 nM | 43 nM | – | – | – | –
NC(=O)[C@H](Cc1ccccc1)NC(=O)[C@H](CCCN=C(N)N)NC(=O)CCN1c2ccccc2Sc2ccccc21 | 0.9 nM | – | – | – | – | –
NC(=O)[C@H](Cc1ccccc1)NC(=O)[C@H](CCCN=C(N)N)NC(=O)c1ccc2ccccc2n1 | 121 nM | 47 nM | – | – | – | –
NC(=O)[C@@H](Cc1ccccc1)NC(=O)[C@@H](CCCN=C(N)N)NC(=O)c1ccc(-c2ccccc2)cc1 | 167 nM | 417 nM | – | – | – | –
N=C(N)NCCC[C@H](NC(=O)CCN1c2ccccc2Sc2ccccc21)C(=O)N[C@@H](Cc1ccccc1)C(N)=O | – | – | 31% | 59% | 100% | 100%
N=C(N)NCCC[C@H](NC(=O)Cc1ccccc1Cl)C(=O)N[C@@H](Cc1ccccc1)C(N)=O | – | – | 16% | 60% | 83% | 47%
N=C(N)NCCC[C@H](NC(=O)c1[nH]c2ccccc2c1-c1ccccc1)C(=O)N[C@@H](Cc1ccccc1)C(N)=O | – | – | 14% | 27% | 92% | 39%
N=C(N)NCCC[C@@H](NC(=O)c1ccccc1-c1ccccc1)C(=O)N[C@H](Cc1ccccc1)C(N)=O | – | – | 8% | 70% | 92% | 85%
Cc1ccc(CC(=O)N[C@@H](CCCNC(=N)N)C(=O)N[C@@H](Cc2ccccc2)C(N)=O)cc1 | – | – | 5% | 14% | 72% | 34%
N=C(N)NCCC[C@H](NC(=O)CC(c1ccccc1)c1ccccc1)C(=O)N[C@@H](Cc1ccccc1)C(N)=O | – | – | 16% | 40% | 89% | 37%
N=C(N)NCCC[C@@H](NC(=O)c1ccccc1)C(=O)N[C@H](Cc1ccccc1)C(N)=O | – | – | 15% | 30% | 73% | 35%
N=C(N)NCCC[C@@H](NC(=O)c1cccc(-c2ccccc2)c1)C(=O)N[C@@H](Cc1ccccc1)C(N)=O | – | – | 65% | 72% | 99% | 85%
N=C(N)NCCC[C@@H](NC(=O)Cc1ccccc1)C(=O)N[C@H](Cc1ccccc1)C(N)=O | – | – | 4% | 30% | 78% | 43%
N=C(N)NCCC[C@@H](NC(=O)c1ccc(-c2ccccc2)cc1)C(=O)N[C@H](Cc1ccccc1)C(N)=O | – | – | 6% | 50% | 83% | 40%
N=C(N)NCCC[C@H](NC(=O)c1ccc(-c2ccccc2)cc1)C(=O)N[C@@H](Cc1ccccc1)C(N)=O | – | – | 0% | 15% | 43% | 20%
N=C(N)NCCC[C@H](NC(=O)c1ccc(C(=O)c2ccccc2)cc1)C(=O)N[C@@H](Cc1ccccc1)C(N)=O | – | – | 4% | 43% | 68% | 14%
COc1ccc(C(=O)N[C@@H](CCCNC(=N)N)C(=O)N[C@@H](Cc2ccccc2)C(N)=O)cc1OC | – | – | 0% | 27% | 65% | 13%
N=C(N)NCCC[C@H](NC(=O)c1cnc2ccccc2c1)C(=O)N[C@@H](Cc1ccccc1)C(N)=O | – | – | 24% | 47% | 79% | 22%
N=C(N)NCCC[C@H](NC(=O)c1cccc(C(=O)c2ccccc2)c1)C(=O)N[C@@H](Cc1ccccc1)C(N)=O | – | – | 0% | 40% | 78% | 15%
N=C(N)NCCC[C@@H](NC(=O)c1ccc(-c2ccccc2)cc1)C(=O)N[C@@H](Cc1ccccc1)C(N)=O | – | – | 43% | 57% | 92% | 81%
N=C(N)NCCC[C@H](NC(=O)/C=C/c1cccc(O)c1)C(=O)N[C@@H](Cc1ccccc1)C(N)=O | – | – | 15% | 47% | 80% | 21%
N=C(N)NCCC[C@H](NC(=O)/C=C/c1cccnc1)C(=O)N[C@@H](Cc1ccccc1)C(N)=O | – | – | 6% | 27% | 41% | 3%

Compound | Ki [1] | Ki [2] | inhibition [3] | inhibition [4] | inhibition [5] | inhibition [6]
COc1ccccc1C(=O)N[C@@H](CCCNC(=N)N)C(=O)N[C@@H](Cc1ccccc1)C(N)=O | – | – | 10% | 19% | 96% | 40%
COc1ccc(/C=C/C(=O)N[C@@H](CCCNC(=N)N)C(=O)N[C@@H](Cc2ccccc2)C(N)=O)cc1OC | – | – | 4% | 34% | 77% | 19%
N=C(N)NCCC[C@H](NC(=O)c1ccc(O)c(O)c1)C(=O)N[C@@H](Cc1ccccc1)C(N)=O | – | – | 0% | 28% | 56% | 18%
COc1ccc(CC(=O)N[C@@H](CCCNC(=N)N)C(=O)N[C@@H](Cc2ccccc2)C(N)=O)cc1 | – | – | 14% | 21% | 52% | 18%
N=C(N)NCCC[C@H](NC(=O)C1CCNCC1)C(=O)N[C@@H](Cc1ccccc1)C(N)=O (H-[Inp]-Arg-Phe-NH2) | – | – | 19% | 59% | 100% | 26%
N=C(N)NCCC[C@H](NC(=O)c1ccco1)C(=O)N[C@@H](Cc1ccccc1)C(N)=O | – | – | 3% | 23% | 92% | 42%
N=C(N)NCCC[C@H](NC(=O)c1ccncc1)C(=O)N[C@@H](Cc1ccccc1)C(N)=O | – | – | 2% | 21% | 74% | 18%
COc1ccc(C(=O)N[C@@H](CCCNC(=N)N)C(=O)N[C@@H](Cc2ccccc2)C(N)=O)cn1 | – | – | 14% | 54% | 77% | 19%
N=C(N)NCCC[C@@H](NC(=O)c1cccc(-c2ccccc2)c1)C(=O)N[C@H](Cc1ccccc1)C(N)=O | – | – | 6% | 38% | 88% | 63%
COc1ccc(C(=O)N[C@@H](CCCNC(=N)N)C(=O)N[C@@H](Cc2ccccc2)C(N)=O)cc1 | – | – | 1% | 21% | 71% | 18%
N=C(N)NCCC[C@H](NC(=O)c1cccc(Cl)c1)C(=O)N[C@@H](Cc1ccccc1)C(N)=O | – | – | 0% | 20% | 84% | 56%
N=C(N)NCCC[C@H](NC(=O)C(c1ccccc1)c1ccccc1)C(=O)N[C@@H](Cc1ccccc1)C(N)=O | – | – | 0% | 33% | 88% | 34%
N=C(N)NCCC[C@H](NC(=O)c1ccc2ccccc2n1)C(=O)N[C@@H](Cc1ccccc1)C(N)=O | – | – | 28% | 82% | 100% | 34%
N=C(N)NCCC[C@H](NC(=O)Cc1ccc(O)c(O)c1)C(=O)N[C@@H](Cc1ccccc1)C(N)=O | – | – | 17% | 38% | 61% | 0%
N=C(N)NCCC[C@H](NC(=O)c1cccc(-c2ccccc2)c1)C(=O)N[C@@H](Cc1ccccc1)C(N)=O | – | – | 27% | 56% | 82% | 26%
CC(C)(C)c1ccc(C(=O)N[C@@H](CCCNC(=N)N)C(=O)N[C@@H](Cc2ccccc2)C(N)=O)cc1 | – | – | 14% | 31% | 94% | 43%
N=C(N)NCCC[C@H](NC(=O)c1cc2ccccc2[nH]1)C(=O)N[C@@H](Cc1ccccc1)C(N)=O | – | – | 35% | 80% | 86% | 26%
N=C(N)NCCC[C@H](NC(=O)c1ccc(Cl)cc1)C(=O)N[C@@H](Cc1ccccc1)C(N)=O | – | – | 3% | 7% | 59% | 37%
N=C(N)NCCC[C@H](NC(=O)C12CC3CC(CC(C3)C1)C2)C(=O)N[C@@H](Cc1ccccc1)C(N)=O | – | – | 40% | 85% | 97% | 60%
N=C(N)NCCC[C@H](NC(=O)/C=C/c1ccccc1O)C(=O)N[C@@H](Cc1ccccc1)C(N)=O | – | – | 17% | 77% | 82% | 25%
N=C(N)NCCC[C@H](NC(=O)c1ccc(Cl)c(Cl)c1)C(=O)N[C@@H](Cc1ccccc1)C(N)=O | – | – | 12% | 67% | 77% | 25%
N=C(N)NCCC[C@H](NC(=O)/C=C/c1ccccc1)C(=O)N[C@@H](Cc1ccccc1)C(N)=O | – | – | 24% | 46% | 58% | 3%
N=C(N)NCCC[C@H](NC(=O)c1ccc2ccccc2c1)C(=O)N[C@@H](Cc1ccccc1)C(N)=O | – | – | 23% | 56% | 81% | 27%
N=C(N)NCCC[C@H](NC(=O)Cc1ccc(O)cc1)C(=O)N[C@@H](Cc1ccccc1)C(N)=O | – | – | 0% | 26% | 76% | 32%
